Source: patent US12202818B2, “Compounds and methods for CD73 modulation and indications therefor” (Opna Bio SA, priority 2020, dated 2025)

Columns and labels:
[1] = target: T1, Human CD73 (amino acid residues 27-549) (Homo sapiens, UniProt P21589); test: CD73 enzymatic assay (luciferase-based indirect assay, CellTiter-Glo); assay type: biochemical; settings: 0.4 nM CD73, 150 μM AMP, 1 hour at room temperature
T1 construct: Human CD73 (amino acid residues 27-549); His tag (N); made in house; host or cells: E. coli
T1 sequence (P21589 27-549): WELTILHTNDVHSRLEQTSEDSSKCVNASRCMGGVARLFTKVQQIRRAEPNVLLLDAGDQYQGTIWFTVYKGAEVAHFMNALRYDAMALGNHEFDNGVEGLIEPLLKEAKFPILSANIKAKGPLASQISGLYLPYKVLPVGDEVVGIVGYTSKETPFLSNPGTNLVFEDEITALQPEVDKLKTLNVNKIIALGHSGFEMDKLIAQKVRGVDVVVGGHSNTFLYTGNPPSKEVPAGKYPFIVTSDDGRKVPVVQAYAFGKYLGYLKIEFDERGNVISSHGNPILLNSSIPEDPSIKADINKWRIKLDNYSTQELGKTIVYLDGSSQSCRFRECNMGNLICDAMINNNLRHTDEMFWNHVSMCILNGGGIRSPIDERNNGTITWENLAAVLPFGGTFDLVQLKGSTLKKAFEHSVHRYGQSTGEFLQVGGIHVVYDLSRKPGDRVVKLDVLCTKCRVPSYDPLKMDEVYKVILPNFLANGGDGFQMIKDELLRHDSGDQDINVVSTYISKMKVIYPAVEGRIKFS
How it was run: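 N-His human CD73 (27-549) expressed in E. coli, 0.4 nM, incubated with 150 μM AMP and compound in 50 mM HEPES pH 7.4, 0.01% Tween-20, 1 h at RT. Remaining AMP read via CellTiter-Glo luminescence with 1 μM ATP after 30 min; IC50 from nonlinear regression of % inhibition.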

human CD73 = target: T2, human CD73 (Homo sapiens, UniProt P21589); test: Inhibitor activity against CD73 in cell based assay (CD73 expressing CHO-K1 cells); settings: CHO-K1 cells expressing human CD73, 150 μM AMP, 4 hours of incubation; read-out: CHO-K1 CELL_VARIANT: CD73 IC50
T2 construct: expressed in transfected cells
T2 sequence (P21589 27-549): T1 sequence (P21589 27-549)
How it was run: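 Stable human CD73 CHO-K1 cells, 1×10^4/well, exposed to an 8-point 1:3 compound series (top 10 μM, 0.2% DMSO) plus 150 μM AMP for 4 h. Remaining AMP in the supernatant was read by CellTiter-Glo 2.0 luminescence with 1 μM ATP after 30 min at room temperature. IC50 came from nonlinear regression of % inhibition against cell and media-only controls.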

Row | Structure (SMILES) | IC50 [1] [µM] | IC50 (human CD73) [µM]
1 | Cc1nn(C(F)F)c(C)c1-c1ccnc(O[C@@H]2CCN(c3cn[nH]c(=O)c3Cl)C2)c1 [P-0170, (R)-4-chloro-5-(3-((4-(1-(difluoromethyl)-3,5-dimethyl-1H-pyrazol-4-yl)pyridin-2-yl)oxy)pyrrolidin-1-yl)pyridazin-3(2H)-one] | 0.001 to 10 | 0.001 to 10
2 | Cc1nn(CC2COC2)c(C)c1-c1cc(O[C@@H]2CCN(c3cn[nH]c(=O)c3Cl)C2)ncn1 [P-0061, (R)-4-chloro-5-(3-((6-(3,5-dimethyl-1-(oxetan-3-ylmethyl)-1H-pyrazol-4-yl)pyrimidin-4-yl)oxy)pyrrolidin-1-yl)pyridazin-3(2H)-one] | 0.001 to 10 | 0.001 to 10
3 | Cc1noc(C)c1-c1cnnc(O[C@@H]2CCN(c3cn[nH]c(=O)c3Cl)C2)c1 [P-0158, (R)-4-chloro-5-(3-((5-(3,5-dimethylisoxazol-4-yl)pyridazin-3-yl)oxy)pyrrolidin-1-yl)pyridazin-3(2H)-one] | 0.001 to 10 | 0.001 to 10
4 | Cc1nn(C)c(C)c1-c1cnnc(O[C@@H]2CCN(c3cn[nH]c(=O)c3Cl)C2)c1 [P-0156, (R)-4-chloro-5-(3-((5-(1,3,5-trimethyl-1H-pyrazol-4-yl)pyridazin-3-yl)oxy)pyrrolidin-1-yl)pyridazin-3(2H)-one] | 0.001 to 10 | 0.001 to 10
5 | Cc1noc(C)c1-c1cc(O[C@H]2CN(c3cnn(CCO)c(=O)c3Cl)C[C@@H]2F)ncn1 [P-0145, 4-chloro-5-((3S,4S)-3-((6-(3,5-dimethylisoxazol-4-yl)pyrimidin-4-yl)oxy)-4-fluoropyrrolidin-1-yl)-2-(2-hydroxyethyl)pyridazin-3(2H)-one] | 0.001 to 10 | 0.001 to 10
6 | Cc1noc(C)c1-c1cc(O[C@H]2CN(c3cn[nH]c(=O)c3Cl)C[C@@H]2F)ncn1 [P-0148, 4-chloro-5-((3S,4S)-3-((6-(3,5-dimethylisoxazol-4-yl)pyrimidin-4-yl)oxy)-4-fluoropyrrolidin-1-yl)pyridazin-3(2H)-one] | 0.001 to 10 | 0.001 to 10
7 | Cc1noc(C)c1-c1cncc(O[C@@H]2CCN(c3cn[nH]c(=O)c3Cl)C2)c1 [P-0162, (R)-4-chloro-5-(3-((5-(3,5-dimethylisoxazol-4-yl)pyridin-3-yl)oxy)pyrrolidin-1-yl)pyridazin-3(2H)-one] | 0.001 to 10 | 0.001 to 10
8 | O=C(Nc1ccc(-c2ccnc(O[C@@H]3CCN(c4cn[nH]c(=O)c4Cl)C3)c2)c(F)c1)NC1CC1 [P-0211, (R)-1-(4-(2-((1-(5-chloro-6-oxo-1,6-dihydropyridazin-4-yl)pyrrolidin-3-yl)oxy)pyridin-4-yl)-3-fluorophenyl)-3-cyclopropylurea] | 0.001 to 10 | 0.001 to 10
9 | N#CC1CC2CCC(C1)N2c1ccnc(O[C@@H]2CCN(c3cn[nH]c(=O)c3Cl)C2)c1 (stereo partly drawn) [P-0049, 8-(2-(((R)-1-(5-chloro-6-oxo-1,6-dihydropyridazin-4-yl)pyrrolidin-3-yl)oxy)pyridin-4-yl)-8-azabicyclo[3.2.1]octane-3-carbonitrile] | 0.001 to 10 | 0.001 to 10
10 | Cc1nn(CC2(O)COC2)c(C)c1-c1ccnc(O[C@@H]2CCN(c3cn[nH]c(=O)c3Cl)C2)c1 [P-0065, (R)-4-chloro-5-(3-((4-(1-((3-hydroxyoxetan-3-yl)methyl)-3,5-dimethyl-1H-pyrazol-4-yl)pyridin-2-yl)oxy)pyrrolidin-1-yl)pyridazin-3(2H)-one] | 0.001 to 10 | 0.001 to 10
11 | Cc1cnn(C)c1-c1cc(F)nc(O[C@@H]2CCN(c3cn[nH]c(=O)c3Cl)C2)c1 [P-0175, (R)-4-chloro-5-(3-((4-(1,4-dimethyl-1H-pyrazol-5-yl)-6-fluoropyridin-2-yl)oxy)pyrrolidin-1-yl)pyridazin-3(2H)-one] | 0.001 to 10 | 0.001 to 10

Further lines, results first:

Row | IC50 [1] [µM] | IC50 (human CD73) [µM] | Structure (SMILES)
12 | 0.001 to 10 | 10 to 100 | Cc1nn(CC2CC(C#N)C2)c(C)c1-c1cc(O[C@@H]2CCN(c3cn[nH]c(=O)c3Cl)C2)ncn1 (stereo partly drawn) [P-0052, (R)-3-((4-(6-((1-(5-chloro-6-oxo-1,6-dihydropyridazin-4-yl)pyrrolidin-3-yl)oxy)pyrimidin-4-yl)-3,5-dimethyl-1H-pyrazol-1-yl)methyl)cyclobutane-1-carbonitrile]
13 | 0.001 to 10 | 0.001 to 10 | CCNS(=O)(=O)c1ccc(-c2ccnc(O[C@@H]3CCN(c4cn[nH]c(=O)c4Cl)C3)c2)c(Cl)c1 [P-0202, (R)-3-chloro-4-(2-((1-(5-chloro-6-oxo-1,6-dihydropyridazin-4-yl)pyrrolidin-3-yl)oxy)pyridin-4-yl)-N-ethylbenzenesulfonamide]
14 | 0.001 to 10 | 0.001 to 10 | CCC1(Cn2nc(C)c(-c3ccnc(O[C@@H]4CCN(c5cn[nH]c(=O)c5Cl)C4)c3)c2C)COC1 [P-0054, (R)-4-chloro-5-(3-((4-(1-((3-ethyloxetan-3-yl)methyl)-3,5-dimethyl-1H-pyrazol-4-yl)pyridin-2-yl)oxy)pyrrolidin-1-yl)pyridazin-3(2H)-one]
15 | 0.001 to 10 | 0.001 to 10 | CN1C2CCC1CN(c1ccnc(O[C@@H]3CCN(c4cn[nH]c(=O)c4Cl)C3)c1)C2 [P-0004, 4-chloro-5-((3R)-3-((4-(8-methyl-3,8-diazabicyclo[3.2.1]octan-3-yl)pyridin-2-yl)oxy)pyrrolidin-1-yl)pyridazin-3(2H)-one]
16 | 0.001 to 10 | 0.001 to 10 | Cc1c(C)n(-c2cc(F)nc(O[C@@H]3CCN(c4cn[nH]c(=O)c4Cl)C3)c2)c2ccccc12 [P-0153, (R)-4-chloro-5-(3-((4-(2,3-dimethyl-1H-indol-1-yl)-6-fluoropyridin-2-yl)oxy)pyrrolidin-1-yl)pyridazin-3(2H)-one]
17 | 0.001 to 10 | 0.001 to 10 | Cc1nn(CCN2CCCC2)c(C)c1-c1cc(F)nc(O[C@@H]2CCN(c3cn[nH]c(=O)c3Cl)C2)c1 [P-0159, (R)-4-chloro-5-(3-((4-(3,5-dimethyl-1-(2-(pyrrolidin-1-yl)ethyl)-1H-pyrazol-4-yl)-6-fluoropyridin-2-yl)oxy)pyrrolidin-1-yl)pyridazin-3(2H)-one]
18 | 0.001 to 10 | 0.001 to 10 | Cc1noc(C)c1-c1cc(O[C@@H]2CCN(c3cn[nH]c(=O)c3Cl)C2)ccn1 [P-0138, (R)-4-chloro-5-(3-((2-(3,5-dimethylisoxazol-4-yl)pyridin-4-yl)oxy)pyrrolidin-1-yl)pyridazin-3(2H)-one]
19 | 0.001 to 10 | 0.001 to 10 | COCc1noc(C)c1-c1cc(O[C@@H]2CCN(c3cn[nH]c(=O)c3Cl)C2)ncn1 [P-0125, (R)-4-chloro-5-(3-((6-(3-(methoxymethyl)-5-methylisoxazol-4-yl)pyrimidin-4-yl)oxy)pyrrolidin-1-yl)pyridazin-3(2H)-one]
20 | 0.001 to 10 | 0.001 to 10 | Cc1nn(C)c(C)c1-c1cc(O[C@@H]2CCN(c3cn[nH]c(=O)c3Cl)C2)ccn1 [P-0137, (R)-4-chloro-5-(3-((2-(1,3,5-trimethyl-1H-pyrazol-4-yl)pyridin-4-yl)oxy)pyrrolidin-1-yl)pyridazin-3(2H)-one]
21 | 0.001 to 10 | 0.001 to 10 | Cc1nn(CC23CC(C#N)(C2)C3)c(C)c1-c1ccnc(O[C@@H]2CCN(c3cnn(CCO)c(=O)c3Cl)C2)c1 [P-0034, (R)-3-((4-(2-((1-(5-chloro-1-(2-hydroxyethyl)-6-oxo-1,6-dihydropyridazin-4-yl)pyrrolidin-3-yl)oxy)pyridin-4-yl)-3,5-dimethyl-1H-pyrazol-1-yl)methyl)bicyclo[1.1.1]pentane-1-carbonitrile]
